Test results published in publication PMC8147216, “Genotoxicity Evaluation of Propyl-Propane-Thiosulfinate (PTS) from Allium genus Essential Oils by a Combination of Micronucleus and Comet Assays in Rats” (Foods, 2021).
“And” between values parts separate entries of the source, which are not always exact repeats. Identical values can stand only once. Like-named read-outs stand apart in the source and are kept apart here.

Legend:
[1] = tested on: bone marrow erythrocytes; experiment: In vivo micronucleus (MN) assay in bone marrow (OECD 474); set-up: species or system Wistar rats
Experimental: (§1) After acclimation time, 28 male and 28 female rats were randomly divided into control or treatment groups: the negative control (C−) (five male and five female rats), the solvent control (C sol) (five male and five female rats) treated with water with 0.3% Tween 80, and the positive control (C+) (three male and three female rats) treated with 200 mg/kg b.w. of ethylmethanesulfonate (EMS). The three PTS-treated groups (five male and five female rats per group) were exposed to 55.0, 17.4, and 5.5 mg of PTS/kg b.w. The number of animals was selected according to OECD 474 [27] and OECD 489 [28], which state five animals per sex and per group, and which also allow the use of at least three animals of both sexes treated with a positive control.
Doses were dissolved in water with Tween 80 (final concentration 0.3%) in a final volume of 1.5 mL. Tween 80 was previously used in genotoxicity in vivo studies by Mellado-Garcia et al. with the aim of better conveying alliaceous compounds with an oily nature. All groups were dosed at 0, 24, and 45 h via gavage using a stomach tube (Vygon, Ecouen, France) and were sacrificed 3 h after the final dose administration for the combined comet assay and MN endpoints. The time points of PTS administrations, as well as the timing of sacrifice, were selected following the criteria of OECD guideline 489 and Bowen et al..
(§2) Samples of the liver and stomach were extracted, and a small part of each tissue was immediately handled, as described in Section 2.6, for the standard and enzyme-modified comet assay. Moreover, blood samples were extracted and preserved in Vacutainer® sodium Heparin Tubes (Becton, Dickinson, Rutherford, NJ, USA). Furthermore, samples from the bone marrow of both femurs of each animal were gathered for the MN assay and were rapidly used to prepare smears (Figure 1). For the histopathologic study, sections of the liver and stomach were excised, rinsed with cold saline solution, and preserved in 10% buffered formalin for light microscopy, according to Llana-Ruiz-Cabello et al..
The MN test was performed according to the OECD guideline 474 [27] and Diez-Quijada et al.. The bone marrow of the femurs of the rats were mixed with a drop of fetal bovine serum. Therefore, slides were immersed in methanol, dried, and stained with Giemsa (Figure 1).
The polychromatic erythrocytes (PCE) among total erythrocytes (polychromatic and normochromic erythrocytes (NCE)) ratio and PCE for every NCE ratio were calculated by counting 500 erythrocytes per rat. The number of micronuclei found in immature erythrocytes was calculated by counting a total of 5000 […] per rat, and it was expressed as %MN.

[2] = tested on: rats; experiment: Observation of clinical signs after treatment; format: in vivo, Wistar rats; details: all levels of doses of PTS (5.5, 17.4, 55.0 mg/kg b.w.), oral gavage
Source text: After treatment, each rat was observed twice daily for clinical signs such as changes in the eye, fur, or skin, changes in gait and posture, and secretions.

[3] = tested on: male and female rats; experiment: Combined in vivo MN-comet assay (overall genotoxicity); details: male and female rats orally exposed, 55.0, 17.4 or 5.5 mg PTS/kg b.w.
Experimental: After acclimation time, 28 male and 28 female rats were randomly divided into control or treatment groups: the negative control (C−) (five male and five female rats), the solvent control (C sol) (five male and five female rats) treated with water with 0.3% Tween 80, and the positive control (C+) (three male and three female rats) treated with 200 mg/kg b.w. of ethylmethanesulfonate (EMS). The three PTS-treated groups (five male and five female rats per group) were exposed to 55.0, 17.4, and 5.5 mg of PTS/kg b.w. The number of animals was selected according to OECD 474 [27] and OECD 489 [28], which state five animals per sex and per group, and which also allow the use of at least three animals of both sexes treated with a positive control. Doses were dissolved in water with Tween 80 (final concentration 0.3%) in a final volume of 1.5 mL. Tween 80 was previously used in genotoxicity in vivo studies by Mellado-Garcia et al. with the aim of better conveying alliaceous compounds with an oily nature. All groups were dosed at 0, 24, and 45 h via gavage using a stomach tube (Vygon, Ecouen, France) and were sacrificed 3 h after the final dose administration for the combined comet assay and MN endpoints. The time points of PTS administrations, as well as the timing of sacrifice, were selected following the criteria of OECD guideline 489 and Bowen et al..

[4] = tested on: Caco-2 cells; set-up: method as in PMID 27939830; details: 24–48 h; cited from earlier work
[5] = tested on: liver and stomach; experiment: Histopathological analysis of liver and stomach; format: in vivo, rats
Source text: as §2
Liver and stomach samples were processed and observed under the microscope according to Diez-Quijada et al.. A semiquantitative evaluation of the severity of lesions was scored as follows: 0, no significant lesions (0%); 1, minimal (<10%); 2, mild (11–25%); 3, moderate (26–50%); 4, severe (51–75%); and 5: very severe (>75%). Samples were individually examined by two unbiased and experienced observers, a veterinary pathologist, and an investigator (V.M-H. and R.M.).

[6] = tested on: Caco-2 cells; set-up: method as in PMID 27939830; details: 24 and 48 h, highest concentration assayed; cited from earlier work
[7] = tested on: rats; experiment: Acute toxicity study to establish the maximum tolerated dose; format: in vivo
Experimental: The selection of PTS doses was calculated while taking into account a preceding acute toxicity study carried out by our research group, in which rats (8–10 weeks old) were administrated decreasing doses of PTS to establish the maximum tolerated dose (MTD). […] At that dose, no remarkable injury was detected in the treated rats, and no evidence of study-limiting toxicity was observed. Then, considering the ICH S2 Guidelines and the OECD protocols 474 [27] and 489 [28], the limit dose or MTD of 55.0 mg/kg b.w. was chosen as the highest dose, and two additional properly spaced dose levels (divided by √10) were also calculated. Consequently, the doses were set at 55.0, 17.4, or 5.5 mg of PTS/kg b.w.

[8] = tested on: L5178YTk+/− cells; set-up: method as in PMID 27939830; details: 0.9–15.65 µM, 24 and 48 h of treatment; cited from earlier work
[9] = set-up: method as in PMID 27939830; details: 8.75–280 µM, presence or absence of S9; cited from earlier work
[10] = tested on: liver, stomach and blood cells; experiment: In vivo standard comet assay (OECD 489); set-up: species or system Wistar rats; details: any doses assayed, either sex
Experimental: as §1
(§3) Doses were dissolved in water with Tween 80 (final concentration 0.3%) in a final volume of 1.5 mL. Tween 80 was previously used in genotoxicity in vivo studies by Mellado-Garcia et al. with the aim of better conveying alliaceous compounds with an oily nature. […]
(§4) At least 150 randomly selected nuclei per rat were analyzed with the image-analysis-software Comet Assay IV (Perceptive Instruments, UK). The %DNA in the tail, automatically acquired by the software, were used to define each of the comets analyzed. […] The medians of the scored comets were taken to describe each animal, and the means of each group of doses and controls are represented in Figure 2.

[11] = tested on: liver, stomach and blood cells; experiment: In vivo enzyme-modified comet assay (Endo III, FPG); set-up: species or system Wistar rats; details: any tissue assayed (liver, stomach, blood); 5.5, 17.4, 55.0 mg/kg
Experimental: as §1, §3, §4

[12] = tested on: L5178YTk+/− cells; set-up: method as in PMID 27939830; details: cited from earlier work
[13] = tested on: liver and stomach; set-up: method as in PMID 27085469; details: in vivo genotoxicity study; except glycogen accumulation in liver and slight degeneration in stomach at 55.0 mg/kg; cited from earlier work
[14] = tested on: male and female rats; set-up: method as in PMID 27085469; details: cited from earlier work
[15] = set-up: method as in PMID 26607106; details: four in vitro genotoxicity assays; cited from earlier work
[16] = female, Wistar, rat, in vivo, 200 mg/kg, 48 h
[17] = male, Wistar, rat, in vivo, 200 mg/kg, 48 h
[18] = females, 5.5 mg/kg, gavage at 0, 24, 45 h, mean ± SD
[19] = females, 17.4 mg/kg, gavage at 0, 24, 45 h, mean ± SD
[20] = females, 55.0 mg/kg, gavage at 0, 24, 45 h, mean ± SD
[21] = males, 5.5 mg/kg, gavage at 0, 24, 45 h, mean ± SD
[22] = males, 17.4 mg/kg, gavage at 0, 24, 45 h, mean ± SD
[23] = males, 55.0 mg/kg, gavage at 0, 24, 45 h, mean ± SD

SMILES: CCOS(C)(=O)=O [EMS, ethylmethanesulfonate, reference compound]
- %MN [1, 16]: 2.53 ± 0.38 %
- PCE/NCE [1, 16]: 0.53 ± 0.29
- PCE/Total [1, 16]: 0.33 ± 0.12
- %MN [1, 17]: 1.46 ± 0.72 %
- PCE/NCE [1, 17]: 0.54 ± 0.12
- PCE/Total [1, 17]: 0.35 ± 0.05

SMILES: CCCS[S+]([O-])CCC (stereo not drawn) [PTS, Propyl-propanethiosulfinate]
- clinical signs [2]: No clinical signs were observed
- in vivo genotoxicity [3]: not genotoxic
- DNA damage after incubation with enzymes (Endo III or FPG) [4]: no increase in DNA damage
- severity of lesions in glandular stomach ([5]; 55.0 mg/kg, hypertrophy of mucus cells and flaking epithelium, p < 0.05 vs controls): minimal to mild
- severity of lesions in liver ([5]; 55.0 mg/kg, inflammatory infiltrates and centrilobular degeneration of hepatocytes, p < 0.05 vs controls): minimal (1, minimal (<10%))
- severity of changes in liver ([5]; 17.4 and 5.5 mg/kg, similar to negative and solvent controls): minimal (1, minimal (<10%))
- severity of histopathological changes in stomach ([5]; 17.4 and 5.5 mg/kg, statistically significant): minimal (1, minimal (<10%))
- lesions in the nonglandular stomach ([5]; positive control (EMS 200 mg/kg) and PTS 55.0 mg/kg groups, with pyogranulomatous inflammatory infiltrate): vacuolation of the squamous epithelium in the mucosa
- concentration with positive results in standard comet assay [6]: 280 µM and 280.0 µM
- mortality ([7]; initial dose 175.0 mg of PTS/kg b.w.): death of one of the three animals
- maximum tolerated dose (MTD) ([7]; rat, in vivo): 55.0 mg of PTS/kg
- % of MN in immature erythrocytes vs controls ([1]; any groups (5.5, 17.4, 55 mg/kg) of either sex): not significantly changed
- %MN [1, 18]: 0.86 ± 0.09%
- PCE/NCE [1, 18]: 1.03 ± 0.43
- PCE/Total [1, 18]: 0.49 ± 0.10
- %MN [1, 19]: 0.74 ± 0.06%
- PCE/NCE [1, 19]: 0.68 ± 0.36
- PCE/Total [1, 19]: 0.38 ± 0.13
- %MN [1, 20]: 1.03 ± 0.21%
- PCE/NCE [1, 20]: 0.54 ± 0.28
- PCE/Total [1, 20]: 0.33 ± 0.11
- %MN [1, 21]: 0.46 ± 0.21%
- PCE/NCE [1, 21]: 1.31 ± 0.30
- PCE/Total [1, 21]: 0.56 ± 0.05
- %MN [1, 22]: 0.72 ± 0.30%
- PCE/NCE [1, 22]: 1.14 ± 0.34
- PCE/Total [1, 22]: 0.52 ± 0.08
- %MN [1, 23]: 0.46 ± 0.15%
- PCE/NCE [1, 23]: 0.89 ± 0.21
- PCE/Total [1, 23]: 0.46 ± 0.06
- mutagenicity in MLA assay [8]: not mutagenic
- mutagenicity in the Ames test [9]: not mutagenic
- DNA strand breaks (%DNA in tail), standard comet assay [10]: No observed DNA stand breaks
- frequency of Endo III or FPG-sensitive sites [11]: no remarkable changes
- concentration with positive results in MN test in vitro ([12]; metabolites (+S9)): ≥ 20 µM
- concentration with positive results in MN test in vitro ([12]; without S9, highest concentration assayed): 17.25 µM

SMILES: CCCSS(=O)(=O)CCC [PTSO, propyl thiosulfinate oxide]
- histopathological damage in liver and stomach [13]: no relevant damage
- in vivo genotoxicity [14]: lack of PTSO genotoxicity
- in vitro genotoxicity responses [15]: contradictory responses
